Measurements: paper PMC7429951 (Journal of Medicinal Chemistry, 2020)
Read-outs that look alike come from different tables or passages of the source.

Legend:
[1] = target: T1, LasB (Pseudomonas aeruginosa, UniProt Q02RJ6); conditions: read-out: IC50 (LasB); literature inhibitor; cited from earlier work
[2] = target: T2, HDAC-3 (Homo sapiens, UniProt O15379); assay: HDAC-3 inhibitor screening kit; type: biochemical
T2 construct: purchased Sigma-Aldrich (Saint Louis, MO)
From the text: (§1) Previously, we described N-aryl mercaptoacetamides with high selectivity for the bacterial over a broad range of human MMPs.[29],[30] MMPs are calcium-dependent zinc metalloproteases that play a pivotal role in numerous biochemical processes in humans.[39],[40] Based on the depth of their S1′ binding pocket, MMPs can be divided into three classes: deep (e.g., MMP-3 and -14), intermediate (e.g., MMP-2 and -8), and shallow (e.g., MMP-1 and -7). With the aim to explore the interactions of our inhibitors with all three pocket types, which could help us to assess potential effects on other not-tested representatives, we chose a panel of six MMPs, comprising two members of each class. In addition, HDAC-3, HDAC-8, and TACE (ADAM-17)—enzymes involved in gene expression and the processing of TNF-α,[41],[42] respectively—were selected as important additional human off-targets.

[3] = target: T3, HDAC-8 (Homo sapiens, UniProt Q9BY41); assay: HDAC-8 inhibitor screening kit; type: biochemical
T3 construct: purchased Sigma-Aldrich (Saint Louis, MO)
T3 sequence (Q9BY41 1-377): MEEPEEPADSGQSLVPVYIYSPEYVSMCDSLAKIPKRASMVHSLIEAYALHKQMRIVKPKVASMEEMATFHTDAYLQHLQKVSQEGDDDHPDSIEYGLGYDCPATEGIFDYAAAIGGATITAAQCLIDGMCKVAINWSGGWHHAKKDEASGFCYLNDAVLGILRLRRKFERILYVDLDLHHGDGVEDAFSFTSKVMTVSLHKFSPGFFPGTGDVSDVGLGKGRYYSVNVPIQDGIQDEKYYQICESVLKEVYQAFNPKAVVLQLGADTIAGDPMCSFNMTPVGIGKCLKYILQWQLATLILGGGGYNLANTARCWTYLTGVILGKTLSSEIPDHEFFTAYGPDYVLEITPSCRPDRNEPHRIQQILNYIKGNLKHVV
From the text: as §1

[4] = system: P. aeruginosa strain PA14; assay: Bacterial growth inhibition assay (MIC) P. aeruginosa; type: cell-based, Pseudomonas aeruginosa
[5] = target: T4, MMP-1 (Homo sapiens, UniProt P03956); assay: MMP-1 off-target inhibition; type: biochemical; conditions: read-out: MMP-1 % inhibition @ 100 μM; 100 μM compound
T4 sequence (P03956 100-469): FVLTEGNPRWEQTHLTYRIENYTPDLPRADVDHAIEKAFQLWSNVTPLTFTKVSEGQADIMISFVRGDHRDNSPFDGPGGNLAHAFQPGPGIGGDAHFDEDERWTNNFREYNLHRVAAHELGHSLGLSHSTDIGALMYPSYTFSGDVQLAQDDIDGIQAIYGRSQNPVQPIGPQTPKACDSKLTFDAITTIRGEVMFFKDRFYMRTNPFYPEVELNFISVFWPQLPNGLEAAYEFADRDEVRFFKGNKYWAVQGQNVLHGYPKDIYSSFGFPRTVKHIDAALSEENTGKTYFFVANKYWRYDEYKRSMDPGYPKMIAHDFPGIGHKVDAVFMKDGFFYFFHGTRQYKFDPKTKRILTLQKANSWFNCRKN
From the text: as §1

[6] = in vitro; conditions: human, HepG2 cells (hepatocellular carcinoma)
[7] = target: T5, MMP-7 (Homo sapiens, UniProt P09237); assay: MMP-7 off-target inhibition; type: biochemical; conditions: read-out: MMP-7 % inhibition @ 100 μM; 100 μM compound
T5 sequence (P09237 95-267): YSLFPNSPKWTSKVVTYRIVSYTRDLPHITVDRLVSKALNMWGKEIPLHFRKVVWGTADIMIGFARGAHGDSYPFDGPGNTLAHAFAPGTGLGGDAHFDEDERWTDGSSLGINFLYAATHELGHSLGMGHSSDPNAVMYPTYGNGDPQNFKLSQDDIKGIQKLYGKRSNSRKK
From the text: as §1

[8] = in vitro; conditions: human, A549 cells (lung carcinoma)
[9] = target: T6, TACE (ADAM-17) (Homo sapiens, UniProt P78536); assay: TACE inhibitor screening kit; type: biochemical
T6 construct: purchased Sigma-Aldrich (Saint Louis, MO)
From the text: as §1

[10] = target: T1, LasB
[11] = in vitro; conditions: human, HEK293 cells (embryonal kidney)
[12] = target: MMP-3 (Homo sapiens, UniProt P08254); assay: MMP-3 off-target inhibition; type: biochemical; conditions: read-out: MMP-3 % inhibition @ 100 μM; 100 μM compound
From the text: as §1

[13] = target: T7, MMP-2 (Homo sapiens, UniProt P08253); assay: MMP-2 off-target inhibition; type: biochemical
T7 sequence (P08253 110-660): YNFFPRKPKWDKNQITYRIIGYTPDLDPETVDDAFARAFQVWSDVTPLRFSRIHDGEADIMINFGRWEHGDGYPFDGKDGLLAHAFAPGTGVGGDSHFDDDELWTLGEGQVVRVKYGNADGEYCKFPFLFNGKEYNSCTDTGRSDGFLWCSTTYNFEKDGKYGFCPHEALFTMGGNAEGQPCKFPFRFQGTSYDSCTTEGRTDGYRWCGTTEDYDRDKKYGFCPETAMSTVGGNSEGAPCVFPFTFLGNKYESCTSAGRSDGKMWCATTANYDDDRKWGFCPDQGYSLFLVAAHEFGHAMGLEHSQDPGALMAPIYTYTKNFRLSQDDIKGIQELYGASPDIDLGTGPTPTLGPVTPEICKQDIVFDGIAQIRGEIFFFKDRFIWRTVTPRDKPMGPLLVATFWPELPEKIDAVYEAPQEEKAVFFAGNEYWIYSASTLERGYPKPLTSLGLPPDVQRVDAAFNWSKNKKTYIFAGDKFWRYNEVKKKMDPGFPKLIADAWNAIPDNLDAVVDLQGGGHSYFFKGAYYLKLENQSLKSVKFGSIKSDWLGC
From the text: as §1

[14] = target: MMP-14 (Homo sapiens, UniProt P50281); assay: MMP-14 off-target inhibition; type: biochemical
From the text: as §1

[15] = target: peptidase domain of ColH (ColH-PD) (Hathewaya histolytica, UniProt Q46085); assay: biochemical; design: species or system Clostridium histolyticum; conditions: read-out: ColH-PD % inhibition @ 1 μM
[16] = target: MMP-8 (Homo sapiens, UniProt P22894); assay: MMP-8 off-target inhibition; type: biochemical
From the text: as §1

[17] = target: T1, LasB; assay: biochemical; conditions: LasB IC50, FRET-based assay

T1 sequence (Q02RJ6 198-498): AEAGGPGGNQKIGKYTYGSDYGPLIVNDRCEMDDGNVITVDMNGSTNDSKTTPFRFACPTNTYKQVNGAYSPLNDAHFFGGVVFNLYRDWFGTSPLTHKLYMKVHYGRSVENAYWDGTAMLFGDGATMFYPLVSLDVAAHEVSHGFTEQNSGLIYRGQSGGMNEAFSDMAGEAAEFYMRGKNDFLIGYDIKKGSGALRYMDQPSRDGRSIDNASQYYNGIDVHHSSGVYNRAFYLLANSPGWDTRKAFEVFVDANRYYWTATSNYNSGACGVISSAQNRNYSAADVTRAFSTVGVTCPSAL
Chain of MMP-8 (P22894 101-467): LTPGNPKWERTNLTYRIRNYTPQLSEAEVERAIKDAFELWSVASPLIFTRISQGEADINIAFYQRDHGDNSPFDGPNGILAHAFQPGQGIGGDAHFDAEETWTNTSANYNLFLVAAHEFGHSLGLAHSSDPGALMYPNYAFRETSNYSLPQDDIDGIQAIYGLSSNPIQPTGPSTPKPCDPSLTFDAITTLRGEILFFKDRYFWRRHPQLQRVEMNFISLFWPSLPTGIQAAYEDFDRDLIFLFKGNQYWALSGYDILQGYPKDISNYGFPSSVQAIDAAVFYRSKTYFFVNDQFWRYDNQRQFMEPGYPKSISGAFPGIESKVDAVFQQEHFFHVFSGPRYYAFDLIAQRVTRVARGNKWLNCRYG
T6 sequence (P78536 215-824): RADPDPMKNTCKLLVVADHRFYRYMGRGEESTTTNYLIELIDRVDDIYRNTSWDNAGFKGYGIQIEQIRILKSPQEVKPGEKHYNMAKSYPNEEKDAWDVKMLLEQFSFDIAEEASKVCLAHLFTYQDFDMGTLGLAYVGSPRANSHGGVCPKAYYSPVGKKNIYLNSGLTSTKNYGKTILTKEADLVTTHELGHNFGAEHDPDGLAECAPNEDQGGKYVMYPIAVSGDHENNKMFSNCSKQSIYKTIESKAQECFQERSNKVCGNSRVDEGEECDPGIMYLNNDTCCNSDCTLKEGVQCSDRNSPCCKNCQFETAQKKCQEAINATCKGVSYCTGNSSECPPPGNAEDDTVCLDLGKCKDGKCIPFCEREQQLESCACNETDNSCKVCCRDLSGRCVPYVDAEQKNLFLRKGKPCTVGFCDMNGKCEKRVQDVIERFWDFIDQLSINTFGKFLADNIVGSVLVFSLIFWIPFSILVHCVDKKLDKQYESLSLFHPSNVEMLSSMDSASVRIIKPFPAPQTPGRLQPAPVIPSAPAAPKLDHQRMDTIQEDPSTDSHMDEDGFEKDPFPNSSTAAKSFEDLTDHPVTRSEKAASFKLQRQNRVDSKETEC
T2 sequence (O15379 whole entry): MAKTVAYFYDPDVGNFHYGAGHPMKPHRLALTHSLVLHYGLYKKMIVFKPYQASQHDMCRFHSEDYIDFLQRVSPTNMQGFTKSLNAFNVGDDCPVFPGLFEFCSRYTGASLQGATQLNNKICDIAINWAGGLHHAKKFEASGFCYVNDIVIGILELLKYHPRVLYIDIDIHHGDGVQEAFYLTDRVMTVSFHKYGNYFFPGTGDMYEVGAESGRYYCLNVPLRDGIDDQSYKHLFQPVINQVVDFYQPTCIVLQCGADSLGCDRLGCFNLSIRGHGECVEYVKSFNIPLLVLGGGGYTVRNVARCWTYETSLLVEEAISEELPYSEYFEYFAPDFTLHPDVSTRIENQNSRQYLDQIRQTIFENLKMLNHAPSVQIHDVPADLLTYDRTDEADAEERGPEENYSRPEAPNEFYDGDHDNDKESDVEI
T2 sequence (Q9Y618 395-489 partner limits assumed): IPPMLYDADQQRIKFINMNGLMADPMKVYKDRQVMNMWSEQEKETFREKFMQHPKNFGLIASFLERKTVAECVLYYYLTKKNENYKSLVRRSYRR
Chain of MMP-3 (P08254 100-477): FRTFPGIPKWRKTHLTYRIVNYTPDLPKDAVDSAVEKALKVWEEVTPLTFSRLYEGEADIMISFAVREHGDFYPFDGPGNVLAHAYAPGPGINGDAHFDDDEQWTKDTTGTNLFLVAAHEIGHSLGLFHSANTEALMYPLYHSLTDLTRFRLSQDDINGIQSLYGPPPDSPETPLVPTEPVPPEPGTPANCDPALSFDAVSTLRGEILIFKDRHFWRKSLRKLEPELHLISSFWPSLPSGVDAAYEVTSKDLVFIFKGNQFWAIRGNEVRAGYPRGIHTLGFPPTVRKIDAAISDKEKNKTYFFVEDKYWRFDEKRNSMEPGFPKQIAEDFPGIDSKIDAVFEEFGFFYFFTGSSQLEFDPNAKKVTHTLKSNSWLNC
Chain of peptidase domain of ColH (ColH-PD) (Q46085 331-721 limits assumed): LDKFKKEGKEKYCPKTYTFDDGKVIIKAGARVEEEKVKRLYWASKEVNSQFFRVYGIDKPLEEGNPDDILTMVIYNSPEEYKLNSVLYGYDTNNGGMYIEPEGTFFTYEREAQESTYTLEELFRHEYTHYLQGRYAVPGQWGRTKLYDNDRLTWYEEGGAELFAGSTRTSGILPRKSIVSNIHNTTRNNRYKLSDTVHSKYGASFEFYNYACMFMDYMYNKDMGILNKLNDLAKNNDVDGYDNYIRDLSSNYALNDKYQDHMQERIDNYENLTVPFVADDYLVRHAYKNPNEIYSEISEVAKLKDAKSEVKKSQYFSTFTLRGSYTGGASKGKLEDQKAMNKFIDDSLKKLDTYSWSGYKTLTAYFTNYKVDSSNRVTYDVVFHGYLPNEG

SMILES: Cc1c(O)c(=S)ccn1Cc1ccc(-c2ccccc2)cc1 [Compound 1]
- IC50 [1]: 2.73 ± 0.03 µM

SMILES: O=C1CC(S)C(=O)N1c1ccc(Cl)c(Cl)c1 (stereo not drawn) [Compound 13, 1-(3,4-Dichlorophenyl)-3-mercaptopyrrolidine-2,5-dione]
- IC50 [2]: > 100 µM
- IC50 [3]: > 100 µM
- MIC [4]: >100 µM
- MIC ([4]; Pseudomonas aeruginosa): > 100 µM
- inhibition at 100 µM [5]: < 10%
- IC50 [6]: > 100 µM
- inhibition at 100 µM [7]: < 10%
- IC50 [8]: > 100 µM
- IC50 [9]: 5.2 ± 0.6 µM
- improved activity against LasB compared to previous hit 5 [10]: two-fold
- IC50 [11]: > 100 µM
- inhibition at 100 µM [12]: < 10%
- inhibition at 50 µM ([13]; 50 µM compound, read-out: MMP-2 % inh @50µM): < 10%
- inhibition at 100 µM ([13]; read-out: MMP-2 % inhibition @ 100 μM, 100 μM compound): 39 ± 32%
- inhibition at 50 µM ([14]; 50 µM compound, read-out: MMP-14 % inh @50µM): < 10%
- inhibition at 100 µM ([14]; read-out: MMP-14 % inhibition @ 100 μM, 100 μM compound): < 10%
- inhibition at 1 µM [15]: 12 ± 2%
- inhibition at 50 µM ([16]; 50 µM compound, read-out: MMP-8 % inh @50µM): < 10%
- inhibition at 100 µM ([16]; read-out: MMP-8 % inhibition @ 100 μM, 100 μM compound): 84 ± 8%
- IC50 [17]: 3.4 ± 0.2 µM
